From patent US20210269434A1, “TRICYCLIC COMPOUNDS AS INHIBITORS OF KRAS” (Incyte Corporation, priority 2020, published 2021)
Where two headings read alike, the source gives them in different places.

Assays:
[1] = molecular target: KRAS G12C (Homo sapiens, UniProt P01116, G12C); assay: GDP-GTP exchange assay (KRAS_G12C exchange); format: biochemical; conditions: bodipy-GDP loaded KRAS G12C 2.5 nM, SOS1 150 nM, GppNHp; 2 hours pre-incubation, 2 hours reaction; read-out: G12C_exchange
Protocol: Example A. GDP-GTP Exchange Assay
The inhibitor potency of the exemplified compounds was determined in a fluorescence based guanine nucleotide exchange assay, which measures the exchange of bodipy-GDP (fluorescently labeled GDP) for GppNHp (Non-hydrolyzable GTP analog) to generate the active state of KRAS in the presence of SOS1 (guanine nucleotide exchange factor). Inhibitors were serially diluted in DMSO and a volume of 0.1 μL was transferred to the wells of a black low volume 384-well plate. 5 μL/well volume of bodipy-loaded KRAS G12C diluted to 5 nM in assay buffer (25 mM Hepes pH 7.5, 50 mM NaCl, 10 mM MgCl2 and 0.01% Brij-35) was added to the plate and pre-incubated with inhibitor for 2 hours at ambient temperature. Appropriate controls (enzyme with no inhibitor or with a G12C inhibitor (AMG-510)) were included on the plate. The exchange was initiated by the addition of a 5 μL/well volume containing 1 mM GppNHp and 300 nM SOS1 in assay buffer. The 10 μL/well reaction concentration of the bodipy-loaded KRAS G12C, GppNHp, and SOS1 were 2.5 nM, 500 uM, and 150 nM, respectively. The reaction plates were incubated at ambient temperature for 2 hours, a time estimated for complete GDP-GTP exchange in the absence of inhibitor. For the KRAS G12D and G12V mutants, similar guanine nucleotide exchange assays were used with 2.5 nM as final concentration for the bodipy loaded KRAS proteins and with 4 hours and 3 hours incubation after adding GppNHp-SOS1 mixture for G12D and G12V respectively. A cyclic peptide described to selectively bind G12D mutant (Sakamoto et al., BBRC 484.3 (2017), 605-611) or internal compounds with confirmed binding were used as positive controls in the assay plates. Fluorescence intensities were measured on a PheraStar plate reader instrument (BMG Labtech) with excitation at 485 nm and emission at 520 nm.
Either GraphPad prism or XLfit was used to analyze the data. The IC50 values were derived by fitting the data to a four parameter logistic equation producing a sigmoidal dose-response curve with a variable Hill coefficient. Prism equation: Y=Bottom+(Top−Bottom)/(1+10^((Log lC50−X)*Hill slope)); XLfit equation: Y=(A+((B−A)/(1+((X/C)^D)))) where X is the logarithm of inhibitor concentration and Y is the response.

[2] = system: MIA PaCa-2 (KRAS G12C) cells; assay: Cellular pERK HTRF assay (KRAS_G12C pERK); format: cell-based, human; conditions: read-out: G12C_pERK
Protocol: Example C: Cellular pERK HTRF Assay
MIA PaCa-2 (KRAS G12C; ATCC® CRL-1420), A427 (KRAS G12D; ATCC® HTB53), HPAF-II (KRAS G12D; ATCC® CRL-1997) and NCI-H838 (KRAS WT; ATCC® CRL-5844) cells are purchased from ATCC and maintained in RPMI 1640 media supplemented with 10% FBS (Gibco/Life Technologies). The cells are plated at 5000 cells per well (8 uL) into Greiner 384-well low volume, flat-bottom, tissue culture treated white plates and incubated overnight at 37° C., 5% CO2. The next morning, test compound stock solutions are diluted in media at 3× the final concentration, and 4 uL are added to the cells. The plate is mixed by gentle rotation for 30 seconds (250 rpm) at room temperature. The cells are incubated with the KRAS G12C and G12D compounds for 4 hours or 2 hours respectively at 37° C., 5% CO2.
4 uL of 4× lysis buffer with blocking reagent (1:25) (Cisbio) are added to each well and plates are rotated gently (300 rpm) for 30 minutes at room temperature. 4 uL per well of Cisbio anti Phospho-ERK 1/2 d2 is mixed with anti Phospho-ERK 1/2 Cryptate (1:1) are added to each well, mixed by rotation and incubated overnight in the dark at room temperature. Plates are read on the Pherastar plate reader at 665 nm and 620 nm wavelengths. IC50 determination is performed by fitting the curve of inhibitor percent inhibition versus the log of the inhibitor concentration using the GraphPad Prism 7 software.

[3] = Homo sapiens, MIA PaCa-2, 4 hours incubation

Sequence of KRAS G12C (P01116 1-188 isoform P01116-2 G12C): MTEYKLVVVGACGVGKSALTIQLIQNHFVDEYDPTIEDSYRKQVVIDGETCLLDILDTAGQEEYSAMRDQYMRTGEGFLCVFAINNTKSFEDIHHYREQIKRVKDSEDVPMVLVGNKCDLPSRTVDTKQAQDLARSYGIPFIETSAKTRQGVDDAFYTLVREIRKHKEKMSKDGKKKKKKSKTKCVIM

IC50 [1] [nM]	IC50 [2, 3] [nM]	IC50 ([2]; 4 hours incubation) [nM]	Structure (SMILES)
≤ 100	≤ 100		C=CC(=O)N1CCC(n2cnc3c(OC[C@@H]4CCCN4C)nc4c(F)c(-c5c(C)ccc6[nH]ncc56)c(Cl)cc4c32)CC1CC#N (single isomer, unassigned) [Example 37a]
≤ 100	≤ 100		C=CC(=O)N1CCC(n2cnc3c(OC[C@@H]4CCCN4C)nc4c(F)c(-c5cc(O)ccc5C)c(Cl)cc4c32)CC1CC#N (single isomer, unassigned) [Example 39a]
≤ 100	≤ 100		C=CC(=O)N1CCC(n2cnc3c(OC[C@@H]4CCCN4C)nc4c(F)c(-c5c(C)c(Cl)cc6[nH]ncc56)c(Cl)cc4c32)CC1CC#N (single isomer, unassigned) [Example 40a]
≤ 100	≤ 100		C=CC(=O)N1CC[C@H](n2cnc3c(N4CC(N(C)C)C4)nc4c(F)c(-c5cc(O)cc6ccccc56)c(Cl)cc4c32)C[C@H]1CC#N (single isomer, unassigned) [Example 47a]
≤ 100	≤ 100		C=CC(=O)N1CC[C@H](n2cnc3c(N4CC(N(C)C)C4)nc4c(F)c(-c5cc(O)cc(C)c5C)c(Cl)cc4c32)C[C@H]1CC#N (single isomer, unassigned) [Example 52a]
≤ 100	≤ 100		C=CC(=O)N1CC[C@H](n2cnc3c(N4CC(N(C)C)C4)nc4c(F)c(-c5cc(O)ccc5C)c(Cl)cc4c32)C[C@H]1CC#N (single isomer, unassigned) [Example 53a]
≤ 100	≤ 100		C=CC(=O)N1CC[C@H](n2cnc3c(N4CC(N(C)C)C4)nc4c(F)c(-c5cc(O)ccc5Cl)c(Cl)cc4c32)C[C@H]1CC#N (single isomer, unassigned) [Example 54a]
≤ 100	≤ 100		C=CC(=O)N1CC[C@H](n2cnc3c(N4CC(N(C)C)C4)nc4c(F)c(-c5ccc(F)c6cccnc56)c(Cl)cc4c32)C[C@H]1CC#N (single isomer, unassigned) [Example 64a]
≤ 100	≤ 100		C=CC(=O)N1CC[C@H](n2cnc3c(N4CC(N(C)C)C4)nc4c(F)c(-c5cccc6cnccc56)c(Cl)cc4c32)C[C@H]1CC#N (single isomer, unassigned) [Example 70a]
≤ 100	≤ 100		C=CC(=O)N1CC[C@H](n2cnc3c(N4CC(N(C)C)C4)nc4c(F)c(-c5cccc6ccncc56)c(Cl)cc4c32)C[C@H]1CC#N (single isomer, unassigned) [Example 71a]
≤ 100		≤ 100	C=CC(=O)N1CC[C@H](n2cnc3c(N4CC(N(C)C)C4)nc4c(F)c(-c5cccc6ccncc56)c(Cl)cc4c32)C[C@H]1CC#N (single isomer, unassigned) [Example 71b]
≤ 100	≤ 100		C=CC(=O)N1CC[C@H](n2cnc3c(N4CC(N(C)C)C4)nc4c(F)c(-c5cccc6cccnc56)c(Cl)cc4c32)C[C@H]1CC#N (single isomer, unassigned) [Example 72a]
≤ 100	≤ 100		C=CC(=O)N1CC[C@H](n2cnc3c(N4CC(N(C)C)C4)nc4c(F)c(-c5cncc6ccccc56)c(Cl)cc4c32)C[C@H]1CC#N (single isomer, unassigned) [Example 73a]
≤ 100		≤ 100	C=CC(=O)N1CC[C@H](n2cnc3c(N4CC(N(C)C)C4)nc4c(F)c(-c5cncc6ccccc56)c(Cl)cc4c32)C[C@H]1CC#N (single isomer, unassigned) [Example 73b]
≤ 100	≤ 100		C=CC(=O)N1CC[C@H](n2cnc3c(N4CC(N(C)C)C4)nc4c(F)c(-c5ccnc6ccccc56)c(Cl)cc4c32)C[C@H]1CC#N (single isomer, unassigned) [Example 74a]
≤ 100	≤ 100		COC/C=C/C(=O)N1CC[C@H](n2cnc3c(N4CC(C)(N(C)C)C4)nc4c(F)c(-c5c(C)c(Cl)cc6[nH]ncc56)c(Cl)cc4c32)C[C@H]1CC#N (single isomer, unassigned) [Example 80a]
≤ 100	≤ 100		CC#CC(=O)N1CC[C@H](n2nnc3c(OC[C@@H]4CCCN4C)nc4c(F)c(-c5cccc(Cl)c5C)c(Cl)cc4c32)C[C@H]1CC#N (single isomer, unassigned) [Example 87a]
≤ 100	≤ 100		C=CC(=O)N1CC[C@H](n2cnc3c(OC[C@@H]4CCCN4C)nc4c(F)c(-c5cccc(Cl)c5C)c(Cl)cc4c32)C[C@H]1CC#N (single isomer, unassigned) [Example 118a]
≤ 100	≤ 100		C=CC(=O)N1CC[C@H](n2cnc3c(OC[C@H]4CCCN4C)nc4c(F)c(-c5cccc(Cl)c5C)c(Cl)cc4c32)C[C@H]1CC#N (single isomer, unassigned) [Example 119a]
≤ 100	≤ 100		C=CC(=O)N1CC[C@H](n2nnc3c(N4CC(N(C)C)C4)nc4c(F)c(-c5c(C)c(Cl)cc6c5cnn6C)c(Cl)cc4c32)C[C@H]1CC#N (single isomer, unassigned) [Example 150a]
≤ 100	≤ 100		COC/C=C/C(=O)N1CC[C@H](n2nnc3c(OC[C@@H]4CCCN4C)nc4c(F)c(-c5ccccc5C(F)(F)F)c(C)cc4c32)C[C@H]1CC#N (single isomer, unassigned) [Example 157a]
≤ 100	≤ 100		Cc1cc2c(nc(OC[C@@H]3CCCN3C)c3nnn([C@H]4CCN(C(=O)/C=C/CF)[C@H](CC#N)C4)c32)c(F)c1-c1ccccc1C(F)(F)F (single isomer, unassigned) [Example 159a]
≤ 100	≤ 100		C=CC(=O)N1CC[C@H](n2nnc3c(OC[C@@H]4CCCN4C)nc4c(F)c(-c5ccccc5C(F)(F)F)c(C)cc4c32)C[C@H]1CC#N (single isomer, unassigned) [Example 160a]
≤ 100	≤ 100		Cc1cc2c(nc(N3CC(N(C)C)C3)c3nnn([C@H]4CCN(C(=O)/C=C/CN(C)C)[C@H](CC#N)C4)c32)c(F)c1-c1ccccc1C(F)(F)F (single isomer, unassigned) [Example 163a]
≤ 100	≤ 100		C=CC(=O)N1CC[C@H](n2nnc3c(N4CC(N(C)C)C4)nc4c(F)c(-c5ccccc5C(F)(F)F)c(C)cc4c32)C[C@H]1CC#N (single isomer, unassigned) [Example 165a]
≤ 100	≤ 100		Cc1cc2c(nc(-n3ccnc3C)c3nnn([C@H]4CCN(C(=O)/C=C/CN(C)C)[C@H](CC#N)C4)c32)c(F)c1-c1ccccc1C(F)(F)F (single isomer, unassigned) [Example 167a]
≤ 100	≤ 100		Cc1cc2c(nc(OC[C@@H]3CCCN3C)c3nnn([C@H]4CCN(C(=O)/C=C/C(F)F)[C@H](CC#N)C4)c32)c(F)c1-c1cccnc1C(F)(F)F (single isomer, unassigned) [Example 168a]
≤ 100	≤ 100		CC#CC(=O)N1CC[C@H](n2nnc3c(N4CC(N(C)C)C4)nc4c(F)c(-c5c(C)c(Cl)cc6[nH]ncc56)c(Cl)cc4c32)C[C@H]1CC#N (single isomer, unassigned) [Example 178a]
≤ 100	≤ 100		C=CC(=O)N1CC[C@H](n2nnc3c(N4CC(N(C)C)C4)nc4c(F)c(-c5c(C)c(Cl)cc6[nH]ncc56)c(Cl)cc4c32)C[C@H]1CC#N (single isomer, unassigned) [Example 185a]
